Assay results reported in ChEMBL document CHEMBL1165944, “Synthesis and biological evaluation of a new series of berberine derivatives as dual inhibitors of acetylcholinesterase and butyrylcholinesterase” (Bioorg Med Chem, 2010).

molecular target: Cholinesterase (Equus caballus, UniProt P81908); experiment: Inhibition of equine serum BuChE by Ellman's method
Sequence (P81908 whole entry): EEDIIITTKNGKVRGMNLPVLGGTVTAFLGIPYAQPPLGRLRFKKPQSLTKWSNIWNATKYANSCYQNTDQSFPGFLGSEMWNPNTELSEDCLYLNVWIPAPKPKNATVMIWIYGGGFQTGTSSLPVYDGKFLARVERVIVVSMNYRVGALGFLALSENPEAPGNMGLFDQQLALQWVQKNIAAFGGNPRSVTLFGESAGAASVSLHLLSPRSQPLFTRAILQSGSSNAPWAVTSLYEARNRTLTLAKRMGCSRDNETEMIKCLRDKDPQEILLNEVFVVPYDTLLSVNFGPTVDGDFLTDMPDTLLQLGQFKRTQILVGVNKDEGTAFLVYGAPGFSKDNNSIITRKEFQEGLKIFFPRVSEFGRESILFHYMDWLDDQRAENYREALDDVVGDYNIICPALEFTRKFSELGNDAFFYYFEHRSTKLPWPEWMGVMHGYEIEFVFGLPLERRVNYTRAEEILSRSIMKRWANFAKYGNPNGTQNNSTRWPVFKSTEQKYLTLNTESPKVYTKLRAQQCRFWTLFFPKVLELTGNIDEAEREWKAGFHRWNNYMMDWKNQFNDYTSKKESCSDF

Structure (SMILES) | IC50 [µM]
COc1ccc2cc3[n+](cc2c1OCCC(=O)Nc1ccc([N+](=O)[O-])cc1)CCc1cc2c(cc1-3)OCO2 | 5.53

molecular target: Acetylcholinesterase (Electrophorus electricus, UniProt O42275); experiment: Inhibition of electric eel AChE by Ellman's assay
Sequence (O42275 whole entry): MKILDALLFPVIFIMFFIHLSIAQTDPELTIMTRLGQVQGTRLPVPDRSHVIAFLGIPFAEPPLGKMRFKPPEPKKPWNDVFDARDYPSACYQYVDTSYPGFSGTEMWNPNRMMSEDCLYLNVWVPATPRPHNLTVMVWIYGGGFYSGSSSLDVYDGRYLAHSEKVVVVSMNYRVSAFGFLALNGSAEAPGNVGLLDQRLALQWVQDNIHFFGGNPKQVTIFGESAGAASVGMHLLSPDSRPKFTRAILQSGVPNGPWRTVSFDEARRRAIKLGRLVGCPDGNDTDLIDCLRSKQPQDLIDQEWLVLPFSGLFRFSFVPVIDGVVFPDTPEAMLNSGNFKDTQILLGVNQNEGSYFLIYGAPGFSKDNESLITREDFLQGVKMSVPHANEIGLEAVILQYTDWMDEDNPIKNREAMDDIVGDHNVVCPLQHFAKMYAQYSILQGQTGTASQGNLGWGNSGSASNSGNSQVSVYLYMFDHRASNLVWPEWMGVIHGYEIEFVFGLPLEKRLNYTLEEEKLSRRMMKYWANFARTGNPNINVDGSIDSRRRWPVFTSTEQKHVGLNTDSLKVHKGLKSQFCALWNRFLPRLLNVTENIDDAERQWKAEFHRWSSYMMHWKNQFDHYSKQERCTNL

Structure (SMILES) | IC50 [µM]
COc1ccc2cc3[n+](cc2c1OCCCOc1c(OC)ccc2cc4[n+](cc12)CCc1cc2c(cc1-4)OCO2)CCc1cc2c(cc1-3)OCO2 | 0.226
COc1ccc2cc3[n+](cc2c1OCCCCOc1ccc(Br)cc1)CCc1cc2c(cc1-3)OCO2 | 0.743
COc1ccc2cc3[n+](cc2c1OCCCCOc1c(OC)ccc2cc4[n+](cc12)CCc1cc2c(cc1-4)OCO2)CCc1cc2c(cc1-3)OCO2 | 0.176
COc1ccc2cc3[n+](cc2c1OCCC(=O)Nc1ccc([N+](=O)[O-])cc1)CCc1cc2c(cc1-3)OCO2 | 6.5
COc1ccc2cc3[n+](cc2c1OCCC(=O)Nc1ccc(Cl)cc1)CCc1cc2c(cc1-3)OCO2 | 3.86
COc1ccc2cc3[n+](cc2c1OCCOc1c(OC)ccc2cc4[n+](cc12)CCc1cc2c(cc1-4)OCO2)CCc1cc2c(cc1-3)OCO2 | 0.32
COc1ccc2cc3[n+](cc2c1OCCCOc1ccc([N+](=O)[O-])cc1)CCc1cc2c(cc1-3)OCO2 | 0.4
COc1ccc2cc3[n+](cc2c1OCCCNc1ccccc1)CCc1cc2c(cc1-3)OCO2 | 0.138
COc1ccc2cc3[n+](cc2c1OCC[n+]1cccc(C)c1)CCc1cc2c(cc1-3)OCO2 | 0.048
COc1ccc2cc3[n+](cc2c1OCC[n+]1ccccc1)CCc1cc2c(cc1-3)OCO2 | 0.196
COc1ccc2cc3[n+](cc2c1OCCC[n+]1cccc(C)c1)CCc1cc2c(cc1-3)OCO2 | 0.152
COc1ccc2cc3[n+](cc2c1OCCCOc1ccc(Cl)cc1)CCc1cc2c(cc1-3)OCO2 | 0.715
COc1ccc2cc3[n+](cc2c1OCCCN(C)c1ccccc1)CCc1cc2c(cc1-3)OCO2 | 0.156
COc1ccc2cc3[n+](cc2c1OCCCOc1ccc(Br)cc1)CCc1cc2c(cc1-3)OCO2 | 0.265
COc1ccc(OCCCOc2c(OC)ccc3cc4[n+](cc23)CCc2cc3c(cc2-4)OCO3)cc1 | 1
COc1ccc2cc3[n+](cc2c1OCCCCSc1ccc2ccccc2c1)CCc1cc2c(cc1-3)OCO2 | 1.35
COc1ccc2cc3[n+](cc2c1OCCCSc1ccc2ccccc2c1)CCc1cc2c(cc1-3)OCO2 | 0.5
COc1ccc(NC(=O)CCOc2c(OC)ccc3cc4[n+](cc23)CCc2cc3c(cc2-4)OCO3)cc1 | 2.8
COc1ccc2cc3[n+](cc2c1OCCCCOc1ccc([N+](=O)[O-])cc1)CCc1cc2c(cc1-3)OCO2 | 0.49
COc1ccc2cc3[n+](cc2c1OCCC(=O)Nc1ccc(C)cc1)CCc1cc2c(cc1-3)OCO2 | 1.46
COc1ccc(OCCCCOc2c(OC)ccc3cc4[n+](cc23)CCc2cc3c(cc2-4)OCO3)cc1 | 0.748
COc1ccc2cc3[n+](cc2c1OCCCCOc1ccc(Cl)cc1)CCc1cc2c(cc1-3)OCO2 | 1.5
COc1ccc2cc3[n+](cc2c1OCCCCOc1ccc2ccccc2c1)CCc1cc2c(cc1-3)OCO2 | 1.9
COc1ccc2cc3[n+](cc2c1OCCCOc1ccc2ccccc2c1)CCc1cc2c(cc1-3)OCO2 | 0.359
COc1ccc2cc3[n+](cc2c1OCCCOc1ccc(C)cc1)CCc1cc2c(cc1-3)OCO2 | 0.878
COc1ccc2cc3[n+](cc2c1OCCC(=O)Nc1ccccc1)CCc1cc2c(cc1-3)OCO2 | 0.535
COc1ccc2cc3[n+](cc2c1OCCC[n+]1ccccc1)CCc1cc2c(cc1-3)OCO2 | 0.359
COc1ccc2cc3[n+](cc2c1OCCCCOc1ccccn1)CCc1cc2c(cc1-3)OCO2 | 0.34
